# Measured values reported in patent US20260335288A1, “Pharmacologic Targeting of Genetic Factors That Control Jet Lag” (University of Pittsburgh-Of the Commonwealth System of …, priority 2022, published 2026).
# Experiments:
# MF-Luc cells = assay: Lumicycle recording of circadian period in MF-Luc cells (PER2 promoter luciferase reporter); type: cell-based, mouse; conditions: compound 173 treatment, 5 mM (so in the source), recorded 7 days, FIG. 4 and FIG. 5 panels C & F
# Protocol: (§1) Cell Culture. Primary human pulmonary artery endothelial cells (HPAECs) or mouse fibroblasts harboring a luciferase reporter under the control of a Period 2 (PER2) promoter (MF-Luc) were seeded into tissue culture dishes (Perkin Elmer) in a humidified incubator at 37 °C and 5% CO2. For knockdown experiments, cells were pre-treated with 20 nM “Silencer Select” scrambled silencing RNA (siNC) or with antisense targeting of Np/(siNPL) for 48 hours (ThermoFisher). For chemical treatments, cells were treated with vehicle (DMSO) or 5 mM 173.
# Lumicycle Recording. Prior to circadian measurement, cells were synchronized with […] forskolin (Sigma) in Dulbecco's Modified Eagle Medium (DMEM) supplemented with 0.1% fetal bovine serum, and 100 mM Beetle luciferin (Promega) luciferase substrate was added for bioluminescent recording. Culture dishes were then sealed with sterile vacuum grease and placed in the Lumicycle 96 (Actimetrics) in a dehumidified incubator at 37 °C. Luminescence was recorded continuously for 7 days, and the initial 12 hours of data was omitted from the analysis to allow time for cell synchronization. […] Period was calculated as 2p/w. Period was analyzed if the R^2 was greater than 0.8.
# [1] = tested on: human pulmonary artery endothelial cells (PAECs); assay: Caspase-Glo 3/7 apoptosis assay in human pulmonary artery endothelial cells; type: cell-based; conditions: compound 173 treatment, 5 mM (so in the source), FIG. 5 panels A & D
# Protocol: as §1
# Apoptosis. Apoptosis was measured using the Caspase-Glo 3/7 Assay System (Promega) according to the manufacturer's instructions.
# [2] = tested on: human pulmonary artery endothelial cells (PAECs); assay: BrdU cell proliferation assay in human pulmonary artery endothelial cells; type: cell-based; conditions: compound 173 treatment, 5 mM (so in the source), FIG. 5 panels B & E
# Protocol: as §1
# Cell Proliferation. Cell proliferation was measured using the BrdU Cell Proliferation Assay Kit (Cell Signaling Technologies) according to the manufacturer's instructions.
structure (smiles),measurement,setting,value
Cc1ccc(-c2n[nH]c3c2C2(C(=O)N(C)c4ccccc42)N(C)C3=O)c(O)c1 (stereo not shown) [Compound 173],Circadian period length,MF-Luc cells,decreased
same,Circadian period length,MF-Luc cells; listed as compound 173,significantly decreased
same,Apoptosis,[1],increased
same,Proliferation,[2],decreased
